In article PMC3907537, “Evaluation of the Endothelin Receptor Antagonists Ambrisentan, Bosentan, Macitentan, and Sitaxsentan as Hepatobiliary Transporter Inhibitors and Substrates in Sandwich-Cultured Human Hepatocytes” (PLoS ONE, 2014):

Test system: sandwich-cultured human hepatocytes
Assay: ERA effect on hepatobiliary disposition of d8-taurocholate (B-CLEAR sandwich culture)
Format: cell-based
Details: 100 µM control inhibitor
Protocol: Sandwich-cultured human hepatocytes were obtained from Celsis/IVT (Baltimore, MD) or Life Technologies (Durham, NC). Donors were male (n = 3) and female (n = 1) between the ages of 31 and 62 years old. Hepatic uptake, biliary excretion and in vitro biliary clearance (Clb) were determined using the B-CLEAR® hepatocyte sandwich culture model as described by Liu et al., 1999 [34]. In this system, hepatocytes form functional bile canalicular networks while maintaining the expression and function of key uptake and efflux transporters. The canalicular system of bile pockets remains separate from the cellular culture media due to tight junctions between cells. The integrity of these tight junctions is maintained in the presence of calcium (Plus (+) buffer) while in the absence of calcium (Minus (−) buffer), these tight junctions open and release the contents of the canalicular network into the media.
A dose solution containing 2.5 µM d8-taurocholic acid (d8-TCA) was prepared in Plus (+) Buffer. Co-incubation solutions were prepared by combining d8-TCA dose solution and ERA or rifamycin-SV. Hepatocytes were washed and then conditioned for 10 min in warm Plus (+) or Minus (−) buffer with and without ERA or rifamycin-SV. Pre-incubation solutions were then removed and replaced with dose or co-incubation solutions and incubated for 10 min at 37°C. Following this 10 minute incubation, the dose or co-incubation solutions were removed and the cells were then washed three times with ice-cold Plus (+) buffer. The plates were then frozen at −80°C until processed for bioanalysis.
Study samples were stored in their original 24-well plates at −80°C until prepared for analysis. A volume of 500 µL of cell lysis solution (70∶30 methanol:water) containing 25 nM internal standard was added to each well and mixed for 20 min of mixing. The volume in each well was then transferred to a 96-well filter plate stacked on a Greiner deep well collection plate. The filter plate/collection plate was then centrifuged at 2000 rcf for 5 min. The filtrate was then evaporated to dryness under nitrogen. Samples were reconstituted in 200 µL of sample diluent (60∶40 methanol:10 mM ammonium acetate, native pH), sealed, and placed on a plate shaker for 15 min. These samples were then transferred to a Whatman 96-well 0.45 µm PVDF filter plate stacked on a Costar 3956 plate (HPLC injection plate), centrifuged at 2000 rcf for 2–3 min, and sealed with a silicon cap mat prior to LC-MS/MS analysis. d8-TCA standard spiking solutions were prepared in 50∶50 methanol:water. For a given lysate standard or control, 10 µL was added to each well of a previously frozen analytical plate. Standards representing 0.5–100 pmoles/well and QC’s at the LLQ and ULQ were prepared. These lysate standards and controls were then further processed as described above for unknown study samples. Prepared samples were filtered and analyzed by LC-MS/MS using a Shimadzu binary HPLC system (Columbia, MD) and tandem mass spectrometry using Thermo Electron TSQ® Quantum Discovery MAX™ (Waltham, MA) with an Ion Max ESI source operating in negative ion electrospray ionization mode. Results for unknowns and QCs were calculated using a standard curve based on an internal standard processing method.
Data calculations were performed using Microsoft Excel, 2010 with all values reported as mean ± standard deviation (SD). Statistical comparisons across ERA treatments were performed using analysis of variance (ANOVA) with Fisher’s PLSD post hoc analysis (Statview 5.0, SAS Institute, Cary NC); statistical significance was considered to be P<0.05. All mass values were normalized to mg protein by taking the average protein mass in the taurocholate plate determined using a BCA protein assay (Pierce Biotechnology, Rockford, IL). Cellular accumulation determined in Minus (−) buffer (Accumulation Minus (−) Buffer) represents the total mass of analyte inside the hepatocyte at the end of the incubation time period. […]

`CO[C@H]1/C=C/O[C@@]2(C)Oc3c(C)c(O)c4c(O)c(cc(O)c4c3C2=O)NC(=O)/C(C)=C\C=C\[C@H](C)[C@H](O)[C@@H](C)[C@@H](O)[C@@H](C)[C@H](OC(C)=O)[C@@H]1C` [rifamycin-SV] was tested, and the “d8-TCA Clb in the presence of control inhibitor” value (untreated control 19.9±7.8) was 4.5 ± 2.1 mL/min/kg and the “d8-TCA BEI in the presence of control inhibitor” value (untreated control 74.7%) was 57.1%.
